# Columns and labels:
# Assay type in all cases: cell-based, human
# Cx26 = assay: Western blot of Cx26 in T47D cells; settings: 10, 100, 200 and 500 nM, 24 hours
# Method: T47D cells were dosed with PQ1 for 24 hours. The Western blot analysis was performed as described in Materials and Methods. Whole cell extract was analyzed for Cx 43, Cx32, and Cx26. Experiment was performed at least three times.
# Furthermore, whole cell extract of PQ1 treatment was analyzed for the changes in gap junctional proteins, connexins. Cells were treated with 10, 100, 200, and 500 nM PQ1 for 24 hours. Western blot analysis was performed against Cx26, Cx32, and Cx43 (FIG. 17). […] Anti-tubulin was used as a loading control.
# Western Blot Analysis. Cells were grown in serum supplemented RPMI media until they were 90% confluent in 75 cm^2 flasks. Cells were kept in starving media containing phenol red-free DMEM with 5% charcoal dextran stripped serum, overnight. Cells were dosed with 0, 10, 100, 200 and 500 nM of PQ1 for 24 hours. Cells were washed three times with cold PBS and then were harvested using lysis buffer (20 mM Tris pH 7.5, 0.5 mM EDTA, 0.5 mM EGTA, 0.5% Triton X-100) with 1:1000 dilution of protease inhibitors (Sigma-Aldrich, Saint Louis, Mo.). Cell lysate was sonicated and centrifuged at 13,000 rpm for 30 minutes at 4° C. […] Western blots were detected by enhanced chemiluminescence detection reagents (Pierce, Rockford, Ill., USA).
# MEC = assay: MTT assay, cell viability, MEC; settings: for cell viability compared to control: 24 hours
# Method: The cytotoxicity of PQ1 in MEC and T47D cells using MTT assay was also determined. Cells were treated with 10, 100, 200, and 500 nM PQ1 for 24 hours. MTT assay was performed according to the manufacture's recommendations. A 200 nM PQ1 has 67% cell viability compared to controls (FIG. 16). Treatments of 100 and 200 nM PQ1 have 95% and 103% MEC cell viability compared to control. However, both MEC and T47D cells decrease cell viability to 50% and 65% at 1 μM PQ1, respectively. Thus, 100-200 nM of PQ1 is sufficient to enhance GJIC activity.
# MTT assay. MTT (3-(4,5-dimethyl thiazol-2-yl)-2,5-diphenyl tetrazolium bromide) assay was performed with adherent cell cultures using a culture medium free of phenol red and of serum. Solution containing MTT was metabolized by the cells (incubation period 3 hours). MTT is a tetrazolium salt (yellowish) that is cleaved to formazan crystals by the succinate dehydrogenase system which belongs to the mitochondrial respiratory chain, and is only active in viable cells. The mitochondrial succinate dehydrogenase reduces the MTT crystals into purple formazan in the presence of an electron coupling reagent. The more viable cells will be presented in a well, the more formazan dye will be produced. After solubilization of the MTT crystals with the solubilization solution MTT, the amount of dye will be measured spectrophotometrically at 540 nm.
# T47D cells = assay: Scrape load/dye transfer (SL/DT) GJIC assay, T47D cells
# Method: In the experiments for FIG. 9, T47D cells were dosed with 100, 200 and 400 nM of PQ1 for 40 minutes. Lucifer yellow, a gap junctional permeable dye, was used to measure the GJIC. Rhodamine dextran was used as a control. The dotted line in FIG. 9 indicates the line of cut. This increase could be due to the interaction between the PQ1 and the connexin proteins which leads to the opening of the gap junction channel. PQ1 exerted no effect on the cell morphology of T47D cells (data not shown).
# Scrape load dye transfer technique (SL/DT): Lucifer yellow is an intensely fluorescent […] dye having low molecular weight (Mr 457.2) and passes from one cell to another through gap junctions only. Rhodamine dextran is a high molecular weight polymer (Mr 10,000) used as a control as passes only through injured plasma membrane. Cells were grown to 90% confluency on cover slips, dosed with PQ 1 for 40 minutes. The 2.5 μl of 1% (w/v) Lucifer yellow and 0.75% (w/v) of Rhodamine dextran was mixed and added in the center of the coverslip. Two cuts crossing each other in the center of the coverslip were made. After three minutes, cells were washed with PBS and incubated at 37° C. in tissue culture media for 20 minutes. Cells were fixed and mounted on a slide, sealed and visualized under a fluorescence microscope at 10× objective.
# Intercellular communication in many organs is maintained via GJIC. Several GJIC enhancers have been reported; however, an effective clinical drug targeting gap junction is not available at this time. The effect of PQ1 on the GJIC activity in T47D breast cancer cells was tested. […] Conversely, PQ1 has no effect on GJIC activity of human primary epithelial cells (MEC, normal cells) compared to its controls (data not shown). The distance of dye transfer from section cut to the farthest cells with dye was measured. […] MECs have uniform uptake of Lucifer yellow. This is due to the existing high level of gap junction activity of these normal cells.
# Gap Junction Activity. […] Cells were mounted on a slide, sealed and visualized under a fluorescence microscope at 10× objective.
smiles,measurement,setting,value
"COc1cc(NCCCN)c2nccc(C)c2c1Oc1cccc(C(F)(F)F)c1.O=C(O)CCC(=O)O [PQ1, 6-Methoxy-8-[(3-aminopropyl)amino]-4-methyl-5-(3-trifluoromethylphenyloxy) quinoline succinic acid]",Cx26 expression,Cx26,no effect
same,cell viability compared to control,MEC; 100 nM,95%
same,cell viability compared to control,MEC; 200 nM,103%
same,cell viability,MEC; 1 μM,50%
same,increase in distance of dye transfer,"T47D cells; 200 nM, compared to control",8.5 fold
same,gap junction activity (SL/DT) compared to controls,"T47D cells; 100, 200 and 500 nM",significant increase
same,gap junctional activity (SL/DT),T47D cells; 200 and 500 nM for 40 minutes,significant increase

# — patent publication US8809368B2, “Compounds affecting gap junction activity” (Kansas State University Research Foundation, priority 2006, dated 2014)
